Experimental data as given in patent US12617770B2, “IRAK inhibitor and preparation method therefor and use thereof” (WUHAN CREATERNA SCIENCE AND TECHNOLOGY CO., LTD., priority 2019, dated 2026).

Assays:
human IRAK1 = biological target: T1, human IRAK1 (Homo sapiens, UniProt P51617); test: IRAK1 MSA (Mobility-Shift Assay) at Km concentration of ATP; type: biochemical; conditions: for IC50: read-out: IRAKI IC50; for IRAKI IC50 (nM)/ IRAK4 IC50 (nM): selectivity ratio IRAK1 to IRAK4
T1 construct: purchased Cama (so in the source)
T1 sequence (P51617 whole entry): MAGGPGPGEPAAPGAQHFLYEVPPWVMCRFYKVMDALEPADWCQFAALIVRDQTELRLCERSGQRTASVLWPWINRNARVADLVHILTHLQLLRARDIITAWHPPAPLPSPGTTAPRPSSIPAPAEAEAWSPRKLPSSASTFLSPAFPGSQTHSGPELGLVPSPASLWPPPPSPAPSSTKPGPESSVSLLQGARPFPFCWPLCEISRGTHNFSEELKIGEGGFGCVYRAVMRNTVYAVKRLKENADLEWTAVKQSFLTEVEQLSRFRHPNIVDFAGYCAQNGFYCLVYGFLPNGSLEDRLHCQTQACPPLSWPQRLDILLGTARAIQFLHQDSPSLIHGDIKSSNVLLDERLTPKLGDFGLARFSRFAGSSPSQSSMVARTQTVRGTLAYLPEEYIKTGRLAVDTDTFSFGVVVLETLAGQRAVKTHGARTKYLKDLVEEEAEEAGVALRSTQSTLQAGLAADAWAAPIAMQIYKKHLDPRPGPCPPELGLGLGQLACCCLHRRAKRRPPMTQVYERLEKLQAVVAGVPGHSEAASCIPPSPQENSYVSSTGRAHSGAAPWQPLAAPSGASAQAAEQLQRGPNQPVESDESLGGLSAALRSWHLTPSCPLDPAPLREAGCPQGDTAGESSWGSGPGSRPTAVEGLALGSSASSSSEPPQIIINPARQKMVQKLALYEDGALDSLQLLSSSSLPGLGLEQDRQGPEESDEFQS
Experimental: This assay evaluated the inhibitory effect of the compounds on human IRAK1 activity with the same materials as in Test Example 1.
A recombinant fusion protein of N-terminal GST (glutathione-S-transferase) and human IRAK1 was used as enzyme (GST-IRAK1, kinase IRAK1, Cama) at a final concentration of 3 nM: ATP (Sigma) was at a final concentration of 97 μM; the substrates used for the kinase reaction were 5-FAM (5-carboxyfluorescein)-labeled polypeptide (5-FAM-[…]-COOH) and substrate peptide FAM-P8 (GL Biochem) at final concentrations of 5 μM.
In this assay, 500 μM stock solutions of the compounds were prepared in 100% DMSO, and serially 4-fold diluted to the 10th concentration gradient with 100% DMSO, followed by a 10-fold dilution in the compound buffer (50 mM HEPES, pH 7.5, 0.00015% Brij-35) to give intermediate dilutions of the compounds at a final concentration of 10 μM−0.04 nM containing 10% DMSO. 5 μL of the intermediate dilution was transferred into a black 384-well plate.
IRAK1 was diluted to 7.5 nM in the kinase buffer (50 mM HEPES, pH 7.5, 0.00015% Brij-35, 2 mM DTT). 10 μL of the IRAK1 dilution was transferred to the 384-well plate and co-incubated with the compound for 10-15 min.
The substrate and ATP were diluted to 12.5 μM and 242.5 μM with reaction buffer (50 mM HEPES, pH 7.5, 0.00015% Brij-35, 10 mM MgCl2), respectively. 10 μL of the dilution was transferred to a 384-well plate and incubated at 28° C. for 1 h. The reaction was terminated by adding 25 μL of 50 mM EDTA to the 384-well plate.
The inhibition of IRAK1 by the compounds was calculated by measuring the rate of phosphorylated substrate using a Caliper EZ Reader (PerkinElmer) and the IC50 was calculated by XL-fit software.

[1] = Plasma protein binding (PPB), equilibrium dialysis, human plasma; type: in vitro ADME; conditions: 5 h at 37° C., read-out: Plasma protein binding (Bound %) Human (converted)
Experimental: (§1) The experiment is intended to determine plasma protein binding (PPB) data of the test compounds disclosed herein.
(§2) In the PPB experiment, the final administration matrix contained the test compound or a reference compound with a concentration of 1 μM and DMSO with a content of 0.2%.
(§3) Collecting samples in initial time: 25 μL of the matrix containing the compound was added into a blank 96-well collecting plate, and the plate was stored at −20° C.
(§4) An equilibrated dialysis device was prepared. 100 μL of buffer was added to the receiving side of the equilibrium dialysis plate. Then 100 μL of the administration matrix containing the compound or the reference compound was added into an administration side of the equilibrium dialysis plate. The prepared equilibrium dialysis plate was placed in a 37° C. shaker to be shaken for 5 h at 60 rpm.
(§5) Sample was prepared at the end of cultivation (5 h): Preparing sample in the receiving side: 25 μL of sample from a receiving side was taken out and placed in a 96-well sample collecting plate, and 25 μL of a corresponding matrix (blank plasma) was added for mixing: 200 μL of ACN containing an internal standard was added, shaken for 10 minutes at 600 rpm, and centrifuged at 5594 g for 15 min.
(§6) Preparing sample in the administration side: 25 μL of the sample containing test compound and reference compound from the administration side was taken out and 25 μL of a blank buffer was added for mixing; 200 μL of ACN containing an internal standard was added, shaken for 10 minutes at 600 rpm, and centrifuged at 5594 g for 15 min.
(§7) Preparing sample in initial time: the sample containing test compound and reference compound was re-melted at 37° C. in initial time and then mixed with the corresponding matrix (blank buffer) in the same volume (25 μL); 200 μL of ACN containing an internal standard was added, shaken for 10 minutes at 600 rpm, and centrifuged at 5594 g for 15 min.
(§8) After all the samples were centrifuged, 50 μL of a supernatant was taken and added into 50 μL of ultrapure water for mixing, and the samples were sent to liquid chromatography-mass spectrometry.

[2] = Plasma protein binding (PPB), equilibrium dialysis, mouse plasma; type: in vitro ADME; conditions: 5 h at 37° C., read-out: Plasma protein binding (Bound %) Mouse (converted)
Experimental: as §1, §2, §3, §4, §5, §6, §7, §8

[3] = Plasma protein binding (PPB), equilibrium dialysis, rat plasma; type: in vitro ADME; conditions: 5 h at 37° C., read-out: Plasma protein binding (Bound %) Rat (converted)
Experimental: as §1, §2, §3, §4, §5, §6, §7, §8

CYP2D6 = biological target: T2, CYP2D6 (Homo sapiens, UniProt P10635); test: CYP450 inhibition in human liver microsomes, CYP2D6; type: in vitro ADME; conditions: pooled (mixed) human liver microsomes, probe dextromethorphan; human liver microsomes, dextromethorphan; read-out: CYP2D6 IC50
T2 construct: co-incubated at 7 concentrations with human liver microsomes and five probe substrates; tissue Corning (USA); host or cells: mixed (pooled) human liver microsomes
T2 sequence (P10635 whole entry): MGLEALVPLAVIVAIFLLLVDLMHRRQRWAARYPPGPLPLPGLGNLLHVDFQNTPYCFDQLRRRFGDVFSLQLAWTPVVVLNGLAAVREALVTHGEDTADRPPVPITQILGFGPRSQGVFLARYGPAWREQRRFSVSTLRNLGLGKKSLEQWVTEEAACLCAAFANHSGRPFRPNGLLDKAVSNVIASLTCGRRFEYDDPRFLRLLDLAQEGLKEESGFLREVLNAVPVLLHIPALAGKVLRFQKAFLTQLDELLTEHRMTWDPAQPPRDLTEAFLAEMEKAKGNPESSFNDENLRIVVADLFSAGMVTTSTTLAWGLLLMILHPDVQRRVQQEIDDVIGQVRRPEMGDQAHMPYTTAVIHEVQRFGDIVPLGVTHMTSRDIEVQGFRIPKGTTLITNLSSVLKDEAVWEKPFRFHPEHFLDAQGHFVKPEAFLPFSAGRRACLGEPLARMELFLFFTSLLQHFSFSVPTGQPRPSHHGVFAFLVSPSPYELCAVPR
Experimental: This study was intended to investigate the inhibitory effect of the test compounds on 5 major enzymes in human P450 superfamily, CYP1A2, 2C9, 2C19, 2D6 and 3A4-M. The mixed human liver microsomes used in this assay were purchased from Corning (USA). The test compound (compound 14) was co-incubated at 7 concentrations with human liver microsomes and five probe substrates (phenacetin for CYP1a2, diclofenac for CYP2C9, mephenytoin for CYP2C19, dextromethorphan for CYP2D6, midazolam for CYP3A4-M, mixed). The reaction was initiated by adding coenzyme NADPH, and terminated by adding acetonitrile containing internal standard. After the proteins were precipitated, the supernatant was centrifuged. The characteristic metabolites in the supernatant (acetaminophen for CYP1A2, 4-hydroxydiclofenac for CYP2C9, 4-hydroxymephenytoin for CYP2C19, dextrorphan for CYP2D6, 1-hydroxymidazolam for CYP3A4-M) were analyzed by LC-MS/MS. The influence of the test compounds on production of the characteristic metabolites was finally analyzed on the basis of the data obtained. A selective inhibitor (ketoconazole for CYP3A4-M) may be used as positive control. All samples were tested in duplicate.

[4] = Pharmacokinetic study, single oral gavage dosing; type: in vivo; conditions: mouse, 40 mg/kg, 40 mpk, 15% solutol HS15 + 85% PBS, ICR mice, plasma; for AUC(0-t): read-out: Area under curve AUC0-t; for AUC(0-inf): read-out: Area under curve AUC0-∞; for MRT: read-out: Average retention time MRT; for half-life: read-out: Half life t1/2 (converted); for Cmax: read-out: Peak concentration Cmax; for Tmax: read-out: Time to peak tmax

Row | IC50 (human IRAK1) [µM] | IRAKI IC50 (nM)/ IRAK4 IC50 (nM) (human IRAK1) | fraction unbound at 5 h, 1 μM [1] | fraction unbound at 5 h, 1 μM [2] | fraction unbound at 5 h, 1 μM [3] | IC50 (CYP2D6) [µM] | AUC(0-t) [4] [µg·h/mL] | AUC(0-inf) [4] [µg·h/mL] | MRT [4] [h] | half-life [4] [h] | Cmax [4] [ng/mL] | Tmax [4] [h] | SMILES
1 | 2.99 | 130.1 | 0.183 | 0.162 | 0.194 | > 30 | 207 | 207 | 6.75 | 3.62 | 25900 | 4 | COc1cc2nn(CCC(C)(C)O)cc2cc1NC(=O)c1cccc(C)[n+]1[O-] [Compound 163, 2-((2-(3-hydroxy-3-methylbutyl)-6-methoxy-2H-indazol-5-yl)carbamoyl)-6-methylpyridine 1-oxide]
2 | 4.04 | 673.2 | 0.19 | 0.201 | 0.153 | > 30 | 294 | 375 | 15.3 | 11.5 | 24200 | 4 | COc1cc2nn([C@H]3CC[C@](C)(O)CC3)cc2cc1NC(=O)c1cccc(C)[n+]1[O-] [Compound 001, 2-((2-((1r,4r)-4-hydroxy-4-methylcyclohexyl)-6-methoxy-2H-indazol-5-yl)carbamoyl)-6-methylpyridine 1-oxide]
